The values that follow are results of earlier work, collected in patent US20220387384A1, “METHODS OF TREATING LSD1-RELATED DISEASES AND DISORDERS WITH LSD1 INHIBITORS” (Taiho Pharmaceutical Co., Ltd., priority 2019, published 2022).

The conditions of this data set: i.e. about 3 days; NPL 11.

Each structure is given as a SMILES string.

`COc1ccc(-c2c(-c3ccc(C#N)c(F)c3)nc(N3CCC(N)CC3)n(C)c2=O)cc1F` [CC-90011]: the half-life in pharmacokinetics was about 71 h.
